Measured values reported in patent US20250188133A1, “CHIMERIC BACTERIOCINS AND METHOD FOR THE CONTROL OF PSEUDOMONAS” (priority 2022, published 2025).

What was measured:
Format in all cases: in vivo
[1] = tested on: P. aeruginosa PAO1; experiment: murine keratitis model, invasive strain (C57BL/6 mice)
Method: (§1) The inbred mice of C57BL/6 strain of both sexes in equivalent numbers were used for the research. 2-6 months old, adult female and adult male mice were purchased from the Vilnius University vivarium of laboratory animals. The animals throughout the period of the experiment were given standard chow and drinking water ad libitum. Animals were housed in the individual plastic cages in a 12 h light/dark cycle at 21-23° C. All regulated procedures on living animals were approved by The Lithuanian Ethics Committee of Biomedical Research (Protocol no. B1-442) and were carried out in accordance with the European Union legislation of OECD (directive 2010/63/EU). The experiments were carried out in Biological research center of Lithuanian University of Health Sciences.
(§2) For P. aeruginosa infection and keratitis induction the mice were anesthetized by Ketamine and Xylazine 90:9 mg/kg intraperitoneal injection. The cornea of the left eye of each mouse was visualized under a stereoscopic microscope, and three 1 mm scratches were made using a sterile 25 gauge needle. A 10 μL aliquot containing 4×10^6 cells of P. aeruginosa ATCC 19660 (cytotoxic strain) or PAO1 ATCC 15692 (invasive strain) was applied to the corneal surface. Depending on the experiment, the treatment was started 30 min or 6 h post infection. 10 μl aliquot containing 0.14 mg of tobramycin or 20 μg of S5-PmnH (both containing 0.5% hydroxypropyl methylcellulose (HPMC)) or PBS containing 0.5% HPMC was applied as one drop of substance to the each eye. HPMC is used as artificial tears and was used in order to thicken the tears film and prolong the presence of the applied product on the surface of the cornea. The treatment was continued for five days twice daily. Mice were euthanized by cervical dislocation 1, 3, 5 days post infection, and the eyeballs were collected and homogenized for viable bacteria count.
(§3) The eyes were examined and photographed with a dissection microscope equipped with a digital camera at 1, 3 and 5 dpi to monitor the disease progression. At 1, 3 and 5 dpi disease severity was visually graded by using an established corneal damage scale: 0, the pupil was partially or fully covered by clear or slight opacity; +1, the anterior segment was partially or fully covered by slight opacity; +2, the pupil was partially or fully covered by dense opacity; +3, the entire anterior segment was covered by dense opacity; and +4, corneal perforation^40.
(§4) Histopathology experiments were carried out at Lithuanian University of Health Sciences, Department of Veterinary Pathobiology of Veterinary Academy. One randomly chosen mice of each study group was used for histopathology experiments. Enucleated eyes were preserved in 10% formaldehyde. Eyes were paraffin-embedded, cut into 3-μm-thick sections, deparaffinised, rehydrated and used for preparation of hematoxylin/eosin stained samples.

[2] = tested on: P. aeruginosa ATCC 27853; experiment: murine lung colonization and treatment (CD1 mice); details: 5 h post infection
Method: CD1 male mice were supplied by Charles River (Margate, UK) and were specific pathogen free. Mice were 11 to 15 g on receipt at the facility and were allowed to acclimatize for at least 7 days.
P. aeruginosa ATCC 27853 was recovered from long-term storage (−80° C.) and cultured on cystine-lactose-electrolyte-deficient (CLED) agar at 37° C. under aerobic conditions for approximately 16-24 h. 20 ml of Mueller Hinton broth was inoculated with a single well isolated colony and cultured overnight at 37° C. with shaking at 300 rpm65. The overnight broth was diluted 1:100 in Mueller Hinton broth and 100 ml was cultured in a baffle flask for ˜6 h at 37° C. with shaking at 300 rpm until the broth OD was ˜0.6 (˜mid-exponential phase). 20 ml of culture was centrifuged at 2465 g for 10 minutes and washed in PBS. The pellet was suspended in PBS and the OD600 adjusted to 0.67 (˜2.6×10^8 CFU/ml). The study inoculum was prepared from this by appropriate dilution with PBS. The inoculum concentration was confirmed by quantitative culture on Pseudomonas Selective Agar (PSA). The inoculum concentration for the study was 1.47×10^7 CFU/ml (5.87×10^5 CFU/mouse).
Mice were infected under temporary inhaled 3% isoflurane anesthesia by intranasal (IN) instillation with 40 μl of the inoculum suspension split as 20 μl/nostril.
1 hour post infection 6 mice were sacrificed in order to evaluate the pre-treatment burden in lungs. Treatments were administered IN once at 1 h post infection (50 μl split to 25 μl/nares). Three treatment groups consisting of six mice each were administered S5-PmnH (2.5, 25 and 250 μg). The fourth group of mice (n=6) was administered 200 μg Tobramycin (40 mg/ml injection solution, Hospira UK Ltd, diluted 10 times). The study was terminated at 5 hours post infection for all animals. The clinical conditions and weights were assessed and animals were immediately euthanized using an overdose of pentobarbitone. Following confirmation of death, the lungs were excised and homogenized in ice cold sterile phosphate buffered saline using a Precellys bead beater. The homogenates were quantitatively cultured onto PSA agar and incubated at 37° C. for 24 hours before colonies were counted.

[3] = tested on: P. aeruginosa ATCC 19660; experiment: murine keratitis model, cytotoxic strain (C57BL/6 mice)
Method: as §1, §2, §3, §4

[4] = treatment started 30 min post infection

## NC[C@H]1O[C@H](O[C@H]2[C@H](O)[C@@H](O[C@H]3O[C@H](CO)[C@@H](O)[C@H](N)[C@H]3O)[C@H](N)C[C@@H]2N)[C@H](N)C[C@@H]1O [tobramycin, reference compound]
[1]; 1 dpi
  histological examination of infected treated eyes: signs of acute inflammation of cornea
[1]; 3 dpi
  histological examination of infected treated eyes: thinning of cornea epithelium and strong edema of the corneal stroma
[1]; day 5
  histological examination of infected treated eyes: local inflammation of cornea, thinning and degeneration of cornea epithelium
[1]; treatment started 6 h post infection, 1 dpi
  average reduction of bacterial burden vs mock-treated: 1.42 log 10 CFU/cornea
[1]; treatment started 6 h post infection, 3 dpi, three mice per group
  mice from which no viable bacteria were isolated: three
[1]; treatment started 6 h post infection, 5 dpi, mice with bacteria
  viable bacteria in cornea, individual mice: 2.8 log 10 CFU/cornea
[1]; treatment started 6 h post infection, 5 dpi, three mice per group
  mice from which no bacteria were isolated: two
[2]; 200 μg/mouse IN once 1 h post infection
  reduction of lung burden vs vehicle: 2.75 log10 CFU/g
[2]; 200 μg/mouse IN once
  reduction of burden below the level of stasis (pre-treatment): 1.23 log10 CFU/g
[3]; [4]
  histopathology of infected treated eyes: Only weak oedema in the corneal stroma
  signs of disease (visual inspection, clinical score): No signs of disease were observed in majority of samples
[3]; treatment started 30 min post infection, twice daily, 1, 3 or 5 dpi, 20 μg S5-PmnH or 0.14 mg tobramycin per eye
  viable bacteria isolated from infected eyes: no viable P. aeruginosa were isolated
[3]; treatment started 6 h post infection, 1, 3 or 5 dpi
  viable bacteria isolated: no viable bacteria were isolated
[3]; treatment started 6 h post infection, 1 and 3 dpi, two S5-PmnH-treated and one tobramycin-treated mice
  clinical score evaluation: Only mild disease signs were observed
[3]; treatment started 6 h post infection, 3 and 5 dpi
  histopathology of infected treated eyes: slight thickening of epithelium
[3]; treatment started 6 h post infection, 5 dpi
  clinical score evaluation: all corneas were completely clear
